Here are results for four compounds from patent publication EP3150574B1, “AMANTADINE NITRATE COMPOUND HAVING A NEUROPROTECTIVE EFFECT AND PREPARATION AND MEDICAL USE THEREOF” (Guangzhou Magpie Pharmaceuticals Co., Ltd., priority 2014, dated 2015).

This assay relates to primary cerebellum granule cells of rats. Put plainly: Protective effects of compounds on primary cerebellum granule cells against glutamate-induced excitotoxic injury (MTT cell viability). The class given is cell-based. The conditions noted are these: protective effect on rat's nerve cells, pre-protection 2 h, then for 24 h, absorbance at 570 nm.
Description: Isolated primary cerebellum granule cells of infant rats were inoculated in 96-well plates with 1.2×10^5/well by using 10% FBS + 25 mM KCl + 2 mM Glutamine + 1% of double-antibody BME medium. After 24 hours, cytarabine with a final concentration of 10 iM was added to inhibit the proliferation of neurogliocyte cells. After the day 4, glucose with the final concentration of 5 mM was added every four days to complement energy metabolism and water evaporation of cells. The materials were placed in a cell incubator (37 °C, 5% CO2) to be cultured for 10 days. […] After pre-protection for 2 h, 200 iM of glutamate was added to induce cell damage for 24h, and then MTT was added to culture for 4 h. The supernatant fraction was sucked, and 150 iL of DMSO was added to each well for dissolving. After blending with shaking, the light absorption values under 570 nm wavelength was measured with a microplate reader, and the viability of cells was calculated. Cell viability (%) = absorbance of different groups / absorbance of the normal control group × 100%.
As usually defined, the EC50 is the concentration at which the effect is half-maximal. Take `CCC12CC3CC(N)(C1)CC(CO[N+](=O)[O-])(C3)C2` (stereo not shown) [NM-004]: the EC50 turned out to be 8.12 µM.

`CCC12CC3CC(N)(C1)CC(CCCO[N+](=O)[O-])(C3)C2` (stereo not shown) [NM-005] registered an EC50 of 6.06 µM.

`NC12CC3CC(CCO[N+](=O)[O-])(C1)CC(CCO[N+](=O)[O-])(C3)C2` [NM-009]: the EC50 came out at 5.2 µM.

Compound `CC(CO[N+](=O)[O-])CC12CC3CC(N)(C1)CC(CC(C)CO[N+](=O)[O-])(C3)C2` (stereo not shown) [NM-012] came in with a concentration for a half-maximal effect (EC50) of 9.3 µM.
